Read-outs that look alike come from different tables or passages of the source.
Legend:
S. haemolyticus 114126 = assay: BCT test (bacterial contact time), 120 s, log reduction / effect fraction; CI by Compusyn; format: cell-based; details: Staphylococcus haemolyticus, 114126, 2 min, contact 120 s, 25% EtOH; for log reduction at 0.15 % strength: dose 0.15% w/v; for log reduction at 0.2 % strength: dose 0.2% w/v; for log reduction at 0.1 % strength: dose 0.1% w/v; for log reduction at 0.125 % strength: dose 0.125% w/v; for log reduction at 0.175 % strength: dose 0.175% w/v
Summary of the method: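 S. haemolyticus 114126 (skin isolate), grown to OD600 1-2 in BHI-TW80 and resuspended at 1-5×10^8 CFU/mL, was mixed 1:1 with ethanolic perfume compositions or ethanol alone for 45, 60 or 120 s. Viable counts came from serial-dilution regrowth (37 °C, turbidity OD600), giving log reduction versus ethanol control; CI was computed from concentration–effect fraction pairs.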

E. coli ATCC 10536 = assay: BCT test (bacterial contact time), 45 s, log reduction / effect fraction; CI by Compusyn; format: cell-based, Escherichia coli; details: Escherichia coli, ATCC10536, 45 s; for log reduction at 0.1 % strength: dose 0.1% w/v
Summary of the method: (§1)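 Perfume ingredients, alone or combined, in ethanol were mixed 1:1 with ~1×10^8 CFU/mL log-phase bacteria in TSB for the stated contact time. Survivors were estimated by serial dilution and OD600 growth at 37 °C; log reduction versus ethanol control. CI from effect fractions via Compusyn (<0.9 synergy, >1.0 antagonism).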

S. aureus ATCC 6538 = assay: BCT test (bacterial contact time), 60 s, log reduction / effect fraction; CI by Compusyn; format: cell-based, Staphylococcus aureus; details: Staphylococcus aureus, ATCC6538, 1 min, 60 s, in 25% EtOH; for log reduction at 0.1 % strength: dose 0.100 % w/v; for log reduction at 0.125 % strength: dose 0.125 % w/v; for log reduction at 0.15 % strength: dose 0.150 % w/v; for log reduction at 0.075 % strength: dose 0.075 % w/v; for log reduction at 0.05 % strength: dose 0.050 % w/v
Summary of the method: as §1

[1] = system: Pseudomonas aeruginosa ATCC 15442; assay: as above; format: cell-based; details: Pseudomonas aeruginosa, ATCC15442, 1 min, BCT 60 s, in 25% EtOH; for log reduction at 0.05 % strength: Dose 0.05 % w/v; for log reduction at 0.1 % strength: Dose 0.1 % w/v; for log reduction at 0.06 % strength: Dose 0.06 % w/v; for log reduction at 0.07 % strength: Dose 0.07 % w/v; for log reduction at 0.08 % strength: Dose 0.08 % w/v
Summary of the method: as §1

[2] = system: Salmonella enterica ATCC 10708; assay: as above; format: cell-based; details: Salmonella enterica, ATCC10708, 1 min, BCT 60 s, in 25% EtOH; for log reduction at 0.05 % strength: Dose 0.05 % w/v; for log reduction at 0.06 % strength: Dose 0.06 % w/v; for log reduction at 0.04 % strength: Dose 0.04 % w/v
Summary of the method: as §1

[3] = dose 0.05% w/v, contact 45 s, 20% EtOH
[4] = dose 0.07% w/v, contact 45 s, 20% EtOH
[5] = dose 0.09% w/v, contact 45 s, 20% EtOH
[6] = contact 45 s, 20% EtOH, read-out: Log reduction
[7] = dose 0.08% w/v, contact 45 s, 20% EtOH

Structure (SMILES) | log reduction at 0.15 % strength (S. haemolyticus 114126) | log reduction at 0.2 % strength (S. haemolyticus 114126) | log reduction at 0.05 % strength (E. coli ATCC 10536; [3]) | log reduction at 0.07 % strength (E. coli ATCC 10536; [4]) | log reduction at 0.09 % strength (E. coli ATCC 10536; [5]) | log reduction at 0.1 % strength (E. coli ATCC 10536; [6]) | log reduction at 0.1 % strength (S. aureus ATCC 6538) | log reduction at 0.125 % strength (S. aureus ATCC 6538) | log reduction at 0.15 % strength (S. aureus ATCC 6538; read-out: Log reduction) | log reduction at 0.05 % strength ([2]; read-out: Log reduction) | log reduction at 0.06 % strength [2] | log reduction at 0.08 % strength ([2]; Dose 0.080 % w/v) | log reduction at 0.1 % strength (S. haemolyticus 114126) | log reduction at 0.125 % strength (S. haemolyticus 114126) | log reduction at 0.175 % strength (S. haemolyticus 114126; read-out: Log reduction) | log reduction at 0.08 % strength (E. coli ATCC 10536; [7]) | log reduction at 0.075 % strength (S. aureus ATCC 6538) | log reduction at 0.05 % strength [1] | log reduction at 0.1 % strength [1] | log reduction at 0.04 % strength [2] | also measured
C/C=C/c1ccc(O)c(OC)c1 [Isoeugenol, 2-Methoxy-4-(prop-1-en-1-yl)phenol] | -0.3 | 0.5 | 0.1 | 0.8 | 2.9 | 4.9 | 1.1 | 3.7 | 5.6 | -0.1 | 0 | 0.8 | – | – | – | – | – | – | – | – | log reduction at 0.25 % strength (S. haemolyticus 114126; dose 0.25% w/v, read-out: Log reduction): 2.2; log reduction at 0.3 % strength (S. haemolyticus 114126; dose 0.3% w/v, read-out: Log reduction): 3.7; log reduction at 0.35 % strength (S. haemolyticus 114126; dose 0.35% w/v): 5.6; log reduction at 0.4 % strength (S. haemolyticus 114126; dose 0.4% w/v, read-out: Log reduction): 7.2; log reduction at 0.12 % strength (E. coli ATCC 10536; dose 0.12% w/v, contact 45 s, 20% EtOH, read-out: Log reduction): 7.4; log reduction at 0.2 % strength (S. aureus ATCC 6538; dose 0.200 % w/v, read-out: Log reduction): 7.5; log reduction at 0.125 % strength ([1]; Dose 0.125 % w/v): 7.5; log reduction at 0.15 % strength ([1]; Dose 0.15 % w/v): 7.5; log reduction at 0.075 % strength ([2]; Dose 0.075 % w/v): 4; log reduction at 0.08 % strength ([2]; Dose 0.08 % w/v): 4; log reduction at 0.1 % strength ([2]; Dose 0.1 % w/v, read-out: Log reduction): 2.6; log reduction at 0.1 % strength ([2]; Dose 0.10 % w/v, read-out: Log reduction): 6.9; log reduction at 0.11 % strength ([2]; Dose 0.110 % w/v): 7.5; log reduction at 0.12 % strength ([2]; Dose 0.120 % w/v, read-out: Log reduction): 7.2
CC(C)=CCC/C(C)=C\CO [Nerol, (Z)-3,7-dimethyl-2,6-octadien-1-ol] | 6.2 | – | 0.1 | 7 | 7.4 | – | 7 | 7.3 | 7.5 | 5.6 | 7.3 | – | 1.4 | 4 | 7.4 | 7.4 | 3.2 | 3.6 | 7.4 | 2.2 | log reduction at 0.05 % strength (S. haemolyticus 114126; dose 0.05% w/v): 0.1; log reduction at 0.05 % strength (E. coli ATCC 10536; dose 0.050 % w/v, 45 s, in 20% EtOH): 1.1; log reduction at 0.06 % strength (E. coli ATCC 10536; dose 0.060 % w/v, 45 s, in 20% EtOH): 3.2; log reduction at 0.06 % strength (E. coli ATCC 10536; dose 0.06% w/v, contact 45 s, 20% EtOH): 3.2; log reduction at 0.07 % strength (E. coli ATCC 10536; dose 0.070 % w/v, 45 s, in 20% EtOH): 6.7; log reduction at 0.08 % strength (E. coli ATCC 10536; dose 0.080 % w/v, 45 s, in 20% EtOH): 7.3; log reduction at 0.09 % strength (E. coli ATCC 10536; dose 0.090 % w/v, 45 s, in 20% EtOH): 7.3; log reduction at 0.0625 % strength (S. aureus ATCC 6538; dose 0.0625 % w/v): 1.3; log reduction at 0.025 % strength ([1]; Dose 0.025 % w/v): 0.4; log reduction at 0.0625 % strength ([1]; Dose 0.0625 % w/v): 5.6; log reduction at 0.075 % strength ([1]; Dose 0.075 % w/v): 7.4; log reduction at 0.01 % strength ([2]; Dose 0.01 % w/v): 0; log reduction at 0.03 % strength ([2]; Dose 0.03 % w/v): 0.7
C=C(C)[C@@H]1CC=C(CO)CC1 [Perycorolle, (S)-(−)-(4-Isopropenyl-1-cyclohexenyl)methanol] | 1.9 | 7.2 | 0 | 1.2 | 6 | 7.4 | 5.1 | 7.3 | 7.3 | 0.3 | 0.9 | 5.2 | -0.2 | 0.4 | 6.4 | 3.7 | 1.6 | 1.8 | 7.5 | 0 | log reduction at 0.05 % strength (S. aureus ATCC 6538): 0.2; log reduction at 0.06 % strength [1]: 3.7; log reduction at 0.07 % strength [1]: 5.1; log reduction at 0.08 % strength [1]: 7.1; log reduction at 0.07 % strength ([2]; Dose 0.07 % w/v): 2.2
CC(CCO)CCc1ccccc1 (centres unmarked) [Phenylhexanol, 3-methyl-5-phenyl-1-pentanol] | 6.1 | 7.3 | 7.2 | – | – | – | – | – | – | – | – | – | 1.2 | 3.9 | 6.9 | – | – | 3.7 | – | – | log reduction at 0.02 % strength (E. coli ATCC 10536; dose 0.02% w/v, contact 45 s, 20% EtOH): 0; log reduction at 0.03 % strength (E. coli ATCC 10536; dose 0.03% w/v, contact 45 s, 20% EtOH): 0; log reduction at 0.035 % strength (E. coli ATCC 10536; dose 0.035% w/v, contact 45 s, 20% EtOH): 1.1; log reduction at 0.04 % strength (E. coli ATCC 10536; dose 0.04% w/v, contact 45 s, 20% EtOH): 2.4; log reduction at 0.05 % strength (S. aureus ATCC 6538): 1; log reduction at 0.06 % strength (S. aureus ATCC 6538; dose 0.060 % w/v): 3.3; log reduction at 0.07 % strength (S. aureus ATCC 6538; dose 0.070 % w/v): 6.7; log reduction at 0.08 % strength (S. aureus ATCC 6538; dose 0.080 % w/v): 7; log reduction at 0.09 % strength (S. aureus ATCC 6538; dose 0.090 % w/v): 7.5; log reduction at 0.06 % strength [1]: 5.3; log reduction at 0.07 % strength [1]: 7.1; log reduction at 0.08 % strength [1]: 7.5; log reduction at 0.045 % strength ([2]; Dose 0.045 % w/v): 7.9
